Article PMC6212553, “Baicalein Enhances the Oral Bioavailability and Hepatoprotective Effects of Silybin Through the Inhibition of Efflux Transporters BCRP and MRP2” (Frontiers in Pharmacology, 2018)
Read-outs that look alike come from different tables or passages of the source.

Experiments:
[1] = Stability of SBA and SBB in plasma QC samples; assay type: in vitro ADME, rat; conditions: three freeze–thaws, long-term, short-term, post-preparative
Procedure: Next, we wanted to investigate the effect of baicalein on the PKs of silybin in vivo. A validated analytical method for the determination of silybin and its total conjugates in rat plasma by LC-MS was developed based on a previous report with minor modifications ([Yuan et al., 2017]). […] The results of precision and accuracy for intra- and inter-day evaluation are presented in Supplementary Table S2. The lower limit of quantification (LLOQ) was 5 ng/ml with relative standard deviation (RSD) ≤6.4%. The RSD values of quality control (QC) samples examined for precision were within 6.4%, while the accuracy ranged from 91.7 to 109.5%. It can be seen from Supplementary Table S2 that the extraction recoveries of silybin A and B were above 84.4% in plasma. Stability of SBA and SBB in plasma was also tested using QC samples at four different concentrations in the stability tests of three freeze–thaws, long-term, short-term, and post-preparative.
S. Table 1.Calibration curves for determination of S Ba, and S Bb in plasm a samples.
Cpd. Standard curv es R2 R ange
S. Table 2.P recision,accurac y and recover y for determination of S Ba, and S Bb in […]
S. Table 3. Stabilit y t esting results for determination of SBa, and S Bb in plasma […]
Initial a Freeze- thaw b Short-t e r m b Long- t e r m b Post-Prep. b […]
a. Contents of silybin and tangeretin in the freshly prepared QC samples. b. […]

[2] = Pharmacokinetic study in rats after oral administration; assay type: in vivo, SD rats; conditions: silybin 50 mg/kg oral; for CL/F / MRT last / Tmax / half-life: male, SD, rat, plasma, po, 50 mg/kg; for CL/F: read-out: CLz/F, free silybin (converted); for MRT last: read-out: MRT(0-t), free silybin; for Tmax: read-out: Tmax, free silybin; for half-life: read-out: t1/2z, free silybin (converted)
Procedure: A previously established liquid chromatography-mass spectrometry (LC-MS) method with slight modifications was used to determine the concentrations of all glucuronide and sulfate conjugates of silybin and free silybin in bio-samples (plasma, cell and media) ([Wen et al., 2008]). In brief, a 10 μl aliquot of each sample was enzymatically hydrolyzed with […] (8000 U/ml) and sulfatase (80 U/ml), and the reaction was terminated by adding 40 μl ice-cold acetonitrile containing glacial acetic acid (1%) and internal standard NG (25 ng/ml). After centrifugation at 13,500 rpm for 15 min at 4°C, the supernatant was dried in ice bath by blowing nitrogen. Later, the residues were reconstituted with 60 μl of 30% methanol in water containing 1% ascorbic acid, and an aliquot of 10 μl of final solution after centrifugation was analyzed by LC-MS/MS. In parallel, a 10 μl aliquot of each sample without enzymes was treated with 40 μl ice-cold acetonitrile containing glacial acetic acid (1%) and NG (25 ng/ml) to determine the concentration of free silybin. Therefore, the concentration of total glucuronides and sulfates was estimated based on the difference between the amount of total silybin (after incubation with both glucuronidase and sulfatase) and free silybin (without enzymatic incubation). The method was validated in terms of specificity, recovery, linearity, sensitivity (LLOQ), matrix effect, accuracy, precision, and stability based on the USA Food and Drug Administration (FDA) bioanalytical method validation guidance. The quantitative linear range for silybin A and B was 5 to 12500 ng/ml.
The analysis for the determination of the concentration of silybin and its glucuronides and sulfates was performed on an Agilent HP 1100 LC-MS system (Agilent, CA, United States) with Waters ACQUITY UPLC® BEH C18 Column (1.7 μm, 2.1 × 50 mm, Waters Corp., Ireland) protected by a C18 Security Guard cartridge (4 × 2.0 mm i.d., Phenomenex, Torrance, CA, United States). Silybin A and B were well separated using optimized gradient elution with 0.1% formic acid in water (mobile phase A) and methanol (mobile phase B) at a flow rate of 0.4 ml/min within 10 min at room temperature (22°C). The gradient elution was performed as follows (time: mobile phase B percentage): 0 min: 25%, 6 min: 40%, 6.5 min: 25%.
Mass spectrometry parameters: capillary voltage, -4000 V; drying gas, 9 L/min; drying gas temperature, 325°C; nebulizer pressure, 40 psi; fragment voltage, 35 V; dwell time, 200 ms; scan mode, selective ion monitoring (SIM) with [M-H]^- for silybin (m/z 481), mono-glucuronide (m/z 657), and NG (m/z 271). The LC-MS data were collected by Agilent ChemStation Software.
Male SD rats, weighting 200–250 g, were purchased from the Guangdong Medical Laboratory Animal Center. They were housed as six rats per cage and in a temperature- (21°C) and humidity-controlled (70%) room with a 12 h light/dark cycle with standard diet and water. All animals were allowed to acclimate to the housing conditions for 7 days prior to experimentation. Experimental procedures were approved by the Committee of Guangdong Provincial Hospital of Traditional Chinese Medicine (No # 2017044).
The SD rats were randomly divided into three groups with six rats per group and were given oral administration as follows: (1) silybin at a dosage of 50 mg/kg bodyweight, (2) silybin and baicalein at a dosage of 50 mg/kg each, and (3) baicalein at a dosage of 50 mg/kg body weight. Before the experiment, rats were pre-fasted for 24 h with water ad libitum and were maintained at a temperature of 21°C with 70% relative humidity and a 12 h light/dark cycle. Blood samples were collected via the tail vein (about 0.1 ml) at time intervals of 0, 15, 30, 45, 60, 90, 120, 240, 360, 480, and 720 min after oral administration with a temporary cannula ([Parasuraman et al., 2010]), and the samples were transferred into heparinized micro-centrifuge tubes. […]

[3] = with baicalein 50 mg/kg, listed as SBA
[4] = without baicalein, listed as SBA
[5] = with baicalein 50 mg/kg, listed as SBB

stability in plasma [1] | CL/F ([2]; with baicalein 50 mg/kg) [mL/min/kg] | MRT last ([2]; with baicalein 50 mg/kg) [h] | Tmax ([2]; with baicalein 50 mg/kg) [h] | half-life ([2]; with baicalein 50 mg/kg) [h] | CL/F ([2]; without baicalein) [mL/min/kg] | MRT last ([2]; without baicalein) [h] | Tmax ([2]; without baicalein) [h] | half-life ([2]; without baicalein) [h] | AUC(0-∞), free silybin ([2]; with baicalein 50 mg/kg) [ng ⋅ h/ml] | AUC(0-∞), free silybin ([2]; without baicalein) [ng ⋅ h/ml] | Structure (SMILES) | further results
without significant loss | 233 | 1.9 ± 0.2 | 1.5 | 1.6 ± 2.3 | 417 | 4.1 ± 0.9 | 1.5 | 1.5 ± 0.2 | 3599 ± 410 | 2305 ± 1147 | COc1cc([C@H]2Oc3cc([C@H]4Oc5cc(O)cc(O)c5C(=O)[C@@H]4O)ccc3O[C@@H]2CO)ccc1O [silybin A] | AUC(0-t), free silybin ([2]; with baicalein 50 mg/kg): 3534 ± 344 ng ⋅ h/ml; Cmax, free silybin ([2]; with baicalein 50 mg/kg): 1526 ± 126 ng/mL; AUC(0-t), free silybin [2, 3]: 3534 ± 344 ng ⋅ h/ml; Cmax, free silybin [2, 3]: 1526 ± 126 ng/mL; AUC(0-t), free silybin [2, 4]: 1292 ± 342 ng ⋅ h/ml; Cmax, free silybin [2, 4]: 507.7 ± 115 ng/mL
without significant loss | 298 | 2.1 ± 0.3 | 1.29 ± 0.51 | 1.34 ± 0.53 | 450 | 4.21 ± 0.98 | 1.5 | 1.7 ± 0.3 | 1812 ± 223 | 2087 ± 932 | COc1cc([C@@H]2Oc3cc([C@H]4Oc5cc(O)cc(O)c5C(=O)[C@@H]4O)ccc3O[C@H]2CO)ccc1O [silybin B] | AUC(0-t), free silybin [2, 5]: 1808 ± 226 ng ⋅ h/ml; Cmax, free silybin [2, 5]: 915.2 ± 151 ng/mL; AUC(0-t), free silybin ([2]; without baicalein): 1195 ± 302 ng ⋅ h/ml; Cmax, free silybin ([2]; without baicalein): 413 ± 69 ng/mL; Cmax, free silybin ([2]; without baicalein, listed as SBB): 412.7 ± 69.3 ng/mL
